Data: ChEMBL document CHEMBL3108675, “Structure, absolute configuration, and antidiarrheal activity of a thymol derivative from Ageratina cylindrica” (J Nat Prod, 2014)
Where a name gives a salt, the structure may show the parent alone.

Legend:
Rattus norvegicus = organism: Rattus norvegicus; assay: Antidiarrheal activity in rat assessed as inhibition of charcoal-gum acacia-induced hyperperistalsis; assay type: functional; details: read-out: ID50 (the source's name)
Giardia intestinalis = assay: Antiprotozoal activity against Giardia lamblia IMSS:1090:1; assay type: functional, organism-based; details: Giardia duodenalis
Entamoeba histolytica = assay: Antiprotozoal activity against Entamoeba histolytica HM-1:IMSS; assay type: functional, organism-based

Row | SMILES | ED50 (Rattus norvegicus) [µmol/kg] | IC50 (Giardia intestinalis) [µM] | IC50 (Entamoeba histolytica) [µM]
1 | CC(C)C(=O)Oc1cc(C=O)c(O)cc1[C@@]1(COC(=O)c2ccccc2)CO1 | 0.85 | 167 | 185
2 | Oc1cc(O)c2c(c1)OC(c1ccc(O)c(O)c1)C(O)C2 (stereo not drawn) [CATECHIN] | – | 117 | 226
3 | CC[C@H]1CN2CCc3cc(OC)c(OC)cc3[C@@H]2C[C@@H]1C[C@H]1NCCc2cc(OC)c(OC)cc21 [EMETINE] | – | 0.83 | –
4 | CN(C)C(=O)C(CCN1CCC(O)(c2ccc(Cl)cc2)CC1)(c1ccccc1)c1ccccc1 [LOPERAMIDE HYDROCHLORIDE] | 0.2 | – | –
5 | Cc1ncc([N+](=O)[O-])n1CCO [METRONIDAZOLE] | – | – | 0.23
